ChEMBL document CHEMBL4507304, “Data for DCP probe TP-021” (2021)

Assays:
[1] = molecular target: Serine/threonine-protein kinase Nek11 (Homo sapiens) (UniProt Q8NG66); conditions: Compound concentration 1000.0 nM
[2] = molecular target: Homeodomain-interacting protein kinase 4 (Homo sapiens) (UniProt Q8NE63); conditions: Compound concentration 1000.0 nM
[3] = molecular target: Atypical kinase COQ8B, mitochondrial (Homo sapiens) (UniProt Q96D53); conditions: Compound concentration 1000.0 nM
[4] = molecular target: Casein kinase I isoform epsilon (Homo sapiens) (UniProt P49674); conditions: Compound concentration 1000.0 nM
[5] = molecular target: Activin receptor type-1-like (Homo sapiens) (UniProt P37023); conditions: Compound concentration 1000.0 nM
Chain of Activin receptor type-1-like (Homo sapiens) (P37023 whole entry): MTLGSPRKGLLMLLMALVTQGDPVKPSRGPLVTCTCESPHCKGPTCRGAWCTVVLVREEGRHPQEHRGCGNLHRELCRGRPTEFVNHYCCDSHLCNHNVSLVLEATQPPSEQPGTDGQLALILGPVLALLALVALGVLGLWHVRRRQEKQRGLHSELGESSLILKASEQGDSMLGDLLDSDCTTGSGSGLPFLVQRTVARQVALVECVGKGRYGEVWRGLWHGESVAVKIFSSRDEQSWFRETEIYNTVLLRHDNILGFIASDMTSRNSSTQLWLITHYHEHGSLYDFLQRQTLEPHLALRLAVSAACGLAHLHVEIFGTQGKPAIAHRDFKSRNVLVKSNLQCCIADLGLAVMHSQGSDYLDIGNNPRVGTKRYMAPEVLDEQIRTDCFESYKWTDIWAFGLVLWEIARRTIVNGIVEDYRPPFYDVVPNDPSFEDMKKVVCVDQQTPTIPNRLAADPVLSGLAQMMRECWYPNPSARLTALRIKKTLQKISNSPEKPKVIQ

[6] = molecular target: STE20-like serine/threonine-protein kinase (Homo sapiens) (UniProt Q9H2G2); conditions: Compound concentration 1000.0 nM
[7] = molecular target: LIM domain kinase 1 (Homo sapiens) (UniProt P53667); conditions: Compound concentration 1000.0 nM
[8] = tested on: Tyrosine-protein kinase ABL1 (Homo sapiens), P00519 [H396P]; conditions: Compound concentration 1000.0 nM
[9] = tested on: Mast/stem cell growth factor receptor Kit (Homo sapiens), P10721 [A829P]; conditions: Compound concentration 1000.0 nM
[10] = tested on: Phosphatidylinositol 4,5-bisphosphate 3-kinase catalytic subunit alpha isoform (Homo sapiens), P42336 [C420R]; conditions: Compound concentration 1000.0 nM
[11] = molecular target: Fibroblast growth factor receptor 2 (Homo sapiens) (UniProt P21802); conditions: Compound concentration 1000.0 nM
[12] = molecular target: Hormonally up-regulated neu tumor-associated kinase (Homo sapiens) (UniProt P57058); conditions: Compound concentration 1000.0 nM
Chain of Hormonally up-regulated neu tumor-associated kinase (Homo sapiens) (P57058 whole entry): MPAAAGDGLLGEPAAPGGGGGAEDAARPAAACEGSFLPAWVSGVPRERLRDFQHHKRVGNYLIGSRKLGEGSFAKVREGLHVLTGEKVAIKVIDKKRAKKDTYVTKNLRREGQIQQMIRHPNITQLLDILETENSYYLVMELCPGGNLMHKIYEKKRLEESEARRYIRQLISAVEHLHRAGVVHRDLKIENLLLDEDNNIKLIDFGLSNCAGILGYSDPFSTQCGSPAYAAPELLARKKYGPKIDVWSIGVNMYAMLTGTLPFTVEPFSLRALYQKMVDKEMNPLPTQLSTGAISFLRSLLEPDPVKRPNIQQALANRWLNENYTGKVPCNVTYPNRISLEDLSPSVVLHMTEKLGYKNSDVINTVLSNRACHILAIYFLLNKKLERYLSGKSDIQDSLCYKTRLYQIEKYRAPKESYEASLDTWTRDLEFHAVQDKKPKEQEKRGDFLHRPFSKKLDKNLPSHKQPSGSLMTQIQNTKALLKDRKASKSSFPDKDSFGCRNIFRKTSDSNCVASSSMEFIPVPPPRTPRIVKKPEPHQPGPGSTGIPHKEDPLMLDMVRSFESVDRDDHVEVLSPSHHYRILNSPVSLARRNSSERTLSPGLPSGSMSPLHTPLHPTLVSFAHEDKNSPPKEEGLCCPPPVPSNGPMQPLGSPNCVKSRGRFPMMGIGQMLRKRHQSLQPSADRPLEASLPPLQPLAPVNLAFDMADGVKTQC

[13] = molecular target: 5-hydroxytryptamine receptor 1D (Homo sapiens) (UniProt P28221); conditions: Compound concentration 10.0 uM
[14] = molecular target: Serine/threonine-protein kinase TNNI3K (Homo sapiens) (UniProt Q59H18); conditions: Compound concentration 1000.0 nM
Chain of Serine/threonine-protein kinase TNNI3K (Homo sapiens) (Q59H18 whole entry): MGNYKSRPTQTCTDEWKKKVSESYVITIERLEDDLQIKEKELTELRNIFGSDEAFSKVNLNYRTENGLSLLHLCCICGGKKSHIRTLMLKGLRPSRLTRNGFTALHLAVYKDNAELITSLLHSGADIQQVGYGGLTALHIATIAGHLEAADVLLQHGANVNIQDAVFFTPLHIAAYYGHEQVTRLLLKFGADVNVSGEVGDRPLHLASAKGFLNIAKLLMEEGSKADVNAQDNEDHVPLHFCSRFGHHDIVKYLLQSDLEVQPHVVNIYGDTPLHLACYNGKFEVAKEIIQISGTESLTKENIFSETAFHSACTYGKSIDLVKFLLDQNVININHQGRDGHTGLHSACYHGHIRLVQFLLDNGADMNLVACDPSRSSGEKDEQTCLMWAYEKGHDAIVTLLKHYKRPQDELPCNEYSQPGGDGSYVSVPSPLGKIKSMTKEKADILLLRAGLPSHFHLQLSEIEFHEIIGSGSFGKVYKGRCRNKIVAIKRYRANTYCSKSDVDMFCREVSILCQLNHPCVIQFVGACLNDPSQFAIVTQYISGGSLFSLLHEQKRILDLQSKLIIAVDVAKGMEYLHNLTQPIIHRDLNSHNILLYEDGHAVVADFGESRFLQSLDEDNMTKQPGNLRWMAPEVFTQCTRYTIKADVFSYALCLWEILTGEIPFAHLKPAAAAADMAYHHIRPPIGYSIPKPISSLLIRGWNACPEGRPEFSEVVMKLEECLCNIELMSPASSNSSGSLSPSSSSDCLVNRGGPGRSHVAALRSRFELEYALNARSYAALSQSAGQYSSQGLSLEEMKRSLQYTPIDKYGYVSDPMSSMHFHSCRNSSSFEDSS

[15] = molecular target: Serine/threonine-protein kinase ICK (Homo sapiens) (UniProt Q9UPZ9); conditions: Compound concentration 1000.0 nM
[16] = molecular target: Calcium/calmodulin-dependent protein kinase type II subunit beta (Homo sapiens) (UniProt Q13554); conditions: Compound concentration 1000.0 nM
[17] = molecular target: Interleukin-1 receptor-associated kinase 1 (Homo sapiens) (UniProt P51617); conditions: Compound concentration 1000.0 nM
[18] = molecular target: Serine/threonine-protein kinase WNK2 (Homo sapiens) (UniProt Q9Y3S1); conditions: Compound concentration 1000.0 nM
[19] = molecular target: Calcium/calmodulin-dependent protein kinase type IV (Homo sapiens) (UniProt Q16566); conditions: Compound concentration 1000.0 nM
Chain of Calcium/calmodulin-dependent protein kinase type IV (Homo sapiens) (Q16566 whole entry): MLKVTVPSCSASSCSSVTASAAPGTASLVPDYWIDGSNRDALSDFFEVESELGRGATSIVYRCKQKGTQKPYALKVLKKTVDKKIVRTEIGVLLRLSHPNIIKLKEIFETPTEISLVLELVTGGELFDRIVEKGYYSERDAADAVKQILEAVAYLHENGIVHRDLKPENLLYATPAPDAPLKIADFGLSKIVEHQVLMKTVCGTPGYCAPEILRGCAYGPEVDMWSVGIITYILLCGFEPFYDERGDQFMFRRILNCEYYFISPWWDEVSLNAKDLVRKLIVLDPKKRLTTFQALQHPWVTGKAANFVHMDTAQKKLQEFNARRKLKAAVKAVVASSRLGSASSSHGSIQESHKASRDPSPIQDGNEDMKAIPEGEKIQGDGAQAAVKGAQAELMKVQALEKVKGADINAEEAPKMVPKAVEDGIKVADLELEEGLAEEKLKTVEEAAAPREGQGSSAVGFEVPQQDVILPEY

[20] = molecular target: Protein kinase C delta type (Homo sapiens) (UniProt Q05655); conditions: Compound concentration 1000.0 nM
Chain of Protein kinase C delta type (Homo sapiens) (Q05655 whole entry, looked up): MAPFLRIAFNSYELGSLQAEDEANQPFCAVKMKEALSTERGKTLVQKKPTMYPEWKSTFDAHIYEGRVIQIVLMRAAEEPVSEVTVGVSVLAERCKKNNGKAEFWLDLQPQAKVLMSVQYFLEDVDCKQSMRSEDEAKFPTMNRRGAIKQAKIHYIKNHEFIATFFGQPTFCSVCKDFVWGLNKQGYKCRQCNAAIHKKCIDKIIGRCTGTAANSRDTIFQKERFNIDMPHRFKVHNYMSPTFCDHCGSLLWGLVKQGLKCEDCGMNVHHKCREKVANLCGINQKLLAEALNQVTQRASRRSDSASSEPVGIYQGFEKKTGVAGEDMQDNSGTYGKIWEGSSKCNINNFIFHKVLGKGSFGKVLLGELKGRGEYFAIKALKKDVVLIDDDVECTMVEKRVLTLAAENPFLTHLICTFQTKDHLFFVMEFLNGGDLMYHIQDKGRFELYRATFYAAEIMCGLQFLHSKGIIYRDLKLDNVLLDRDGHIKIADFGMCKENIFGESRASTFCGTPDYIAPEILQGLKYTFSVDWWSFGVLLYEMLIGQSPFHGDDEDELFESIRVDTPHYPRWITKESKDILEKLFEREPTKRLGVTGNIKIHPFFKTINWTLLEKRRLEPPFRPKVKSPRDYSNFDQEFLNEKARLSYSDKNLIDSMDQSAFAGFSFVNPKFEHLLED

[21] = molecular target: Myosin light chain kinase, smooth muscle (Homo sapiens) (UniProt Q15746); conditions: Compound concentration 1000.0 nM
[22] = molecular target: 5-hydroxytryptamine receptor 1B (Homo sapiens) (UniProt P28222); conditions: Compound concentration 10.0 uM
[23] = molecular target: Receptor tyrosine-protein kinase erbB-3 (Homo sapiens) (UniProt P21860); conditions: Compound concentration 1000.0 nM
Chain of Receptor tyrosine-protein kinase erbB-3 (Homo sapiens) (P21860 whole entry): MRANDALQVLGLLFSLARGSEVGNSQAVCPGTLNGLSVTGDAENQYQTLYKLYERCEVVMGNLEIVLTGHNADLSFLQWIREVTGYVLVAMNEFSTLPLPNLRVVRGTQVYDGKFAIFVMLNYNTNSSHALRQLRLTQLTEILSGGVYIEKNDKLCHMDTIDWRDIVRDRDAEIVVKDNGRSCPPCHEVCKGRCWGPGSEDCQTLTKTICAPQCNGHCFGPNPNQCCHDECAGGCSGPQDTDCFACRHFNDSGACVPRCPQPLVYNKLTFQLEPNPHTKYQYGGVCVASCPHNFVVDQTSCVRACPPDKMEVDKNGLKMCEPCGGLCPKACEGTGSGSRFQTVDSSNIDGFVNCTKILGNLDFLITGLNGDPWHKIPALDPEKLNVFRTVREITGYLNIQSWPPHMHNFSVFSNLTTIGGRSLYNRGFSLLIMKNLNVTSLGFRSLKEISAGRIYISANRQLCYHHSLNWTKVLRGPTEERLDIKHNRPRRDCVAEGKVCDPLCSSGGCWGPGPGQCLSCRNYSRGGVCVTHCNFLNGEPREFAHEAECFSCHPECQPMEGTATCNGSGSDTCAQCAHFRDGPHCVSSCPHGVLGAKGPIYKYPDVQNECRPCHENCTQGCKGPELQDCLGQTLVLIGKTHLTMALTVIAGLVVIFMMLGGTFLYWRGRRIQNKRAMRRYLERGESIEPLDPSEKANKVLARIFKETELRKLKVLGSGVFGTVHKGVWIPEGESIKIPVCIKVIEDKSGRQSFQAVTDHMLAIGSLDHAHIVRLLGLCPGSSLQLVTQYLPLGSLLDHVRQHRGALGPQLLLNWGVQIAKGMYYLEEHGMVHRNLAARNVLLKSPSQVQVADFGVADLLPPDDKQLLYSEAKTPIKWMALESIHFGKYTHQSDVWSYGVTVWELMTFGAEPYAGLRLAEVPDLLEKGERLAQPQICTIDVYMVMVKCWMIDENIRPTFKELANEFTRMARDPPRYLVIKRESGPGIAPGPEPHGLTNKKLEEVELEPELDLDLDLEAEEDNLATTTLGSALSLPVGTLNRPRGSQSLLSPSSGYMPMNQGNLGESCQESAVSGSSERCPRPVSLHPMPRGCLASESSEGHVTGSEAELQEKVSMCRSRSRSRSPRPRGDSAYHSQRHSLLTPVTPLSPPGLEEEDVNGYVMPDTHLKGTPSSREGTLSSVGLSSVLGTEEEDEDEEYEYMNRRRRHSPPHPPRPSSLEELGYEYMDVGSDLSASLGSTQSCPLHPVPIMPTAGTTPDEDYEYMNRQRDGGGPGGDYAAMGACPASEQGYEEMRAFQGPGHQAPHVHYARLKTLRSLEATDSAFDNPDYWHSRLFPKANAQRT

[24] = molecular target: Receptor-interacting serine/threonine-protein kinase 4 (Homo sapiens) (UniProt P57078); conditions: Compound concentration 1000.0 nM
[25] = tested on: Receptor-type tyrosine-protein kinase FLT3 (Homo sapiens), P36888 [D835H]; conditions: Compound concentration 1000.0 nM
[26] = molecular target: Ribosomal protein S6 kinase alpha-4 (Homo sapiens) (UniProt O75676); conditions: Compound concentration 1000.0 nM
[27] = molecular target: Mitogen-activated protein kinase kinase kinase 3 (Homo sapiens) (UniProt Q99759); conditions: Compound concentration 1000.0 nM
[28] = molecular target: Serine/threonine-protein kinase 35 (Homo sapiens) (UniProt Q8TDR2); conditions: Compound concentration 1000.0 nM
[29] = molecular target: Dual specificity mitogen-activated protein kinase kinase 6 (Homo sapiens) (UniProt P52564); conditions: Compound concentration 1000.0 nM
[30] = molecular target: Calcium/calmodulin-dependent protein kinase type II subunit alpha (Homo sapiens) (UniProt Q9UQM7); conditions: Compound concentration 1000.0 nM
[31] = molecular target: Tyrosine-protein kinase Srms (Homo sapiens) (UniProt Q9H3Y6); conditions: Compound concentration 1000.0 nM
[32] = molecular target: Myosin-IIIb (Homo sapiens) (UniProt Q8WXR4); conditions: Compound concentration 1000.0 nM
[33] = molecular target: Activin receptor type-2B (Homo sapiens) (UniProt Q13705); conditions: Compound concentration 1000.0 nM
[34] = molecular target: Cyclin-dependent kinase-like 3 (Homo sapiens) (UniProt Q8IVW4); conditions: Compound concentration 1000.0 nM
[35] = molecular target: Dual specificity mitogen-activated protein kinase kinase 5 (Homo sapiens) (UniProt Q13163); conditions: Compound concentration 1000.0 nM
[36] = molecular target: MAP kinase-activated protein kinase 5 (Homo sapiens) (UniProt Q8IW41); conditions: Compound concentration 1000.0 nM
[37] = molecular target: Dual specificity tyrosine-phosphorylation-regulated kinase 1A (Homo sapiens) (UniProt Q13627); conditions: Compound concentration 1000.0 nM
[38] = molecular target: Mitogen-activated protein kinase kinase kinase kinase 5 (Homo sapiens) (UniProt Q9Y4K4); conditions: Compound concentration 1000.0 nM
[39] = molecular target: Cyclin-dependent kinase 17 (Homo sapiens) (UniProt Q00537); conditions: Compound concentration 1000.0 nM
[40] = tested on: Tyrosine-protein kinase ABL1 (Homo sapiens), P00519 [E255K]; conditions: Compound concentration 1000.0 nM
[41] = tested on: Epidermal growth factor receptor (Homo sapiens), P00533 [L858R]; conditions: Compound concentration 1000.0 nM
[42] = molecular target: 5-hydroxytryptamine receptor 1A (Homo sapiens) (UniProt P08908); conditions: Compound concentration 10.0 uM
[43] = molecular target: Dual specificity mitogen-activated protein kinase kinase 1 (Homo sapiens) (UniProt Q02750); conditions: Compound concentration 1000.0 nM
[44] = molecular target: Serine/threonine-protein kinase 25 (Homo sapiens) (UniProt O00506); conditions: Compound concentration 1000.0 nM
Chain of Serine/threonine-protein kinase 25 (Homo sapiens) (O00506 whole entry, looked up): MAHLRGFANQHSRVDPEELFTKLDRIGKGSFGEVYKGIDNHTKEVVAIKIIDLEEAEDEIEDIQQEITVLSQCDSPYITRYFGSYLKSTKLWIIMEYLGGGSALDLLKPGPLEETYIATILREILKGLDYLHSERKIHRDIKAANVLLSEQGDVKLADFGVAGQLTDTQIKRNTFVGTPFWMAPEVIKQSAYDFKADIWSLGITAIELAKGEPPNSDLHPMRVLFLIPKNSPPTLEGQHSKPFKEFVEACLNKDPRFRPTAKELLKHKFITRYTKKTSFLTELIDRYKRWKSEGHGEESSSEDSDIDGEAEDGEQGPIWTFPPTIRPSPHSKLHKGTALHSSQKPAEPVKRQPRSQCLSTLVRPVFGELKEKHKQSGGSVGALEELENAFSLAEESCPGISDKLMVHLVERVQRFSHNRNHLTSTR

[45] = molecular target: Angiopoietin-1 receptor (Homo sapiens) (UniProt Q02763); conditions: Compound concentration 1000.0 nM

N#Cc1ccc(Nc2ccc3[nH]c(=O)[nH]c3c2)c(Cl)c1
inactive: residual activity [1] 100% | residual activity [2] 100% | residual activity [3] 100% | residual activity [4] 94% | residual activity [5] 100% | residual activity [6] 100% | residual activity [7] 100% | residual activity [8] 93% | residual activity [9] 100% | residual activity [10] 90% | residual activity [11] 100% | residual activity [12] 98% | inhibition [13] 3.68% | residual activity [14] 65% | residual activity [15] 97% | residual activity [16] 91% | residual activity [17] 100% | residual activity [18] 100% | residual activity [19] 100% | residual activity [20] 100% | residual activity [21] 96% | inhibition [22] 6.7% | residual activity [23] 97% | residual activity [24] 89% | residual activity [25] 100% | residual activity [26] 95% | residual activity [27] 84% | residual activity [28] 100% | residual activity [29] 80% | residual activity [30] 84% | residual activity [31] 100% | residual activity [32] 100% | residual activity [33] 81% | residual activity [34] 80% | residual activity [35] 100% | residual activity [36] 92% | residual activity [37] 100% | residual activity [38] 77% | residual activity [39] 100% | residual activity [40] 92% | residual activity [41] 100% | inhibition [42] -5.44% | residual activity [43] 88% | residual activity [44] 100% | residual activity [45] 85%

O=C1CCc2cc(Nc3cc(OC4CCOCC4)c([N+](=O)[O-])cc3Cl)ccc2N1
inactive: residual activity [1] 100% | residual activity [2] 98% | residual activity [3] 100% | residual activity [4] 100% | residual activity [5] 93% | residual activity [6] 100% | residual activity [7] 100% | residual activity [8] 89% | residual activity [9] 100% | residual activity [10] 97% | residual activity [11] 100% | residual activity [12] 93% | inhibition [13] 18.6% | residual activity [14] 60% | residual activity [15] 100% | residual activity [16] 90% | residual activity [17] 98% | residual activity [18] 100% | residual activity [19] 100% | residual activity [20] 100% | residual activity [21] 94% | inhibition [22] 14.3% | residual activity [23] 98% | residual activity [24] 100% | residual activity [25] 99% | residual activity [26] 72% | residual activity [27] 95% | residual activity [28] 100% | residual activity [29] 69% | residual activity [30] 85% | residual activity [31] 82% | residual activity [32] 97% | residual activity [33] 89% | residual activity [34] 79% | residual activity [35] 100% | residual activity [36] 78% | residual activity [37] 80% | residual activity [38] 87% | residual activity [39] 91% | residual activity [40] 88% | residual activity [41] 100% | inhibition [42] -4.09% | residual activity [43] 72% | residual activity [44] 100% | residual activity [45] 76%
